What all share (assay): biochemical
Design in all cases: species or system HEK293/K-562/placenta mixed human extract; Kinobeads chemoproteomic competition binding, quantified by TMT LC-MS/MS, dose response up to 20 uM

The target of assay [1] is PIP4K2A (Homo sapiens, UniProt P48426).
Assay [2] addresses PRKD1 (Homo sapiens, UniProt Q15139).
Assay [3] concerns the target TP53RK (Homo sapiens, UniProt Q96S44).
The target of assay [4] is CDK7 (Homo sapiens, UniProt P50613).
The target in assay [5] is FGR (Homo sapiens, UniProt P09769).
Assay [6] concerns the target PDXK (Homo sapiens, UniProt O00764).
Assay [7] deals with PKN2 (Homo sapiens, UniProt Q16513).
The target in assay [8] is MAP3K4 (Homo sapiens, UniProt Q9Y6R4).
The target in assay [9] is RPS6KA2 (Homo sapiens, UniProt Q15349).
For assay [10], the target named is ARAF (Homo sapiens, UniProt P10398).
Assay [11] deals with HIPK3 (Homo sapiens, UniProt Q9H422).
In assay [12] the target is MAP2K2 (Homo sapiens, UniProt P36507).
Assay [13] has as its target ULK1 (Homo sapiens, UniProt O75385).
The target in assay [14] is TESK2 (Homo sapiens, UniProt Q96S53).
Assay [15] has as its target CAMK2G (Homo sapiens, UniProt Q13555).
Assay [16] addresses EPHA5 (Homo sapiens, UniProt P54756).
The target in assay [17] is WEE1 (Homo sapiens, UniProt P30291).
In assay [18] the target is CDKL5 (Homo sapiens, UniProt O76039).
Assay [19] deals with EIF2AK4 (Homo sapiens, UniProt Q9P2K8).
Assay [20] has as its target MAP3K1 (Homo sapiens, UniProt Q13233).
Assay [21] concerns the target FRK (Homo sapiens, UniProt P42685).

The text below walks through data of PMC6407917, “Identification of GSK3186899/DDD853651 as a Preclinical Development Candidate for the Treatment of Visceral Leishmaniasis” (Journal of Medicinal Chemistry, 2018).

Each structure is given as a SMILES string.

EIF2AK4, sequence (Q9P2K8 whole entry): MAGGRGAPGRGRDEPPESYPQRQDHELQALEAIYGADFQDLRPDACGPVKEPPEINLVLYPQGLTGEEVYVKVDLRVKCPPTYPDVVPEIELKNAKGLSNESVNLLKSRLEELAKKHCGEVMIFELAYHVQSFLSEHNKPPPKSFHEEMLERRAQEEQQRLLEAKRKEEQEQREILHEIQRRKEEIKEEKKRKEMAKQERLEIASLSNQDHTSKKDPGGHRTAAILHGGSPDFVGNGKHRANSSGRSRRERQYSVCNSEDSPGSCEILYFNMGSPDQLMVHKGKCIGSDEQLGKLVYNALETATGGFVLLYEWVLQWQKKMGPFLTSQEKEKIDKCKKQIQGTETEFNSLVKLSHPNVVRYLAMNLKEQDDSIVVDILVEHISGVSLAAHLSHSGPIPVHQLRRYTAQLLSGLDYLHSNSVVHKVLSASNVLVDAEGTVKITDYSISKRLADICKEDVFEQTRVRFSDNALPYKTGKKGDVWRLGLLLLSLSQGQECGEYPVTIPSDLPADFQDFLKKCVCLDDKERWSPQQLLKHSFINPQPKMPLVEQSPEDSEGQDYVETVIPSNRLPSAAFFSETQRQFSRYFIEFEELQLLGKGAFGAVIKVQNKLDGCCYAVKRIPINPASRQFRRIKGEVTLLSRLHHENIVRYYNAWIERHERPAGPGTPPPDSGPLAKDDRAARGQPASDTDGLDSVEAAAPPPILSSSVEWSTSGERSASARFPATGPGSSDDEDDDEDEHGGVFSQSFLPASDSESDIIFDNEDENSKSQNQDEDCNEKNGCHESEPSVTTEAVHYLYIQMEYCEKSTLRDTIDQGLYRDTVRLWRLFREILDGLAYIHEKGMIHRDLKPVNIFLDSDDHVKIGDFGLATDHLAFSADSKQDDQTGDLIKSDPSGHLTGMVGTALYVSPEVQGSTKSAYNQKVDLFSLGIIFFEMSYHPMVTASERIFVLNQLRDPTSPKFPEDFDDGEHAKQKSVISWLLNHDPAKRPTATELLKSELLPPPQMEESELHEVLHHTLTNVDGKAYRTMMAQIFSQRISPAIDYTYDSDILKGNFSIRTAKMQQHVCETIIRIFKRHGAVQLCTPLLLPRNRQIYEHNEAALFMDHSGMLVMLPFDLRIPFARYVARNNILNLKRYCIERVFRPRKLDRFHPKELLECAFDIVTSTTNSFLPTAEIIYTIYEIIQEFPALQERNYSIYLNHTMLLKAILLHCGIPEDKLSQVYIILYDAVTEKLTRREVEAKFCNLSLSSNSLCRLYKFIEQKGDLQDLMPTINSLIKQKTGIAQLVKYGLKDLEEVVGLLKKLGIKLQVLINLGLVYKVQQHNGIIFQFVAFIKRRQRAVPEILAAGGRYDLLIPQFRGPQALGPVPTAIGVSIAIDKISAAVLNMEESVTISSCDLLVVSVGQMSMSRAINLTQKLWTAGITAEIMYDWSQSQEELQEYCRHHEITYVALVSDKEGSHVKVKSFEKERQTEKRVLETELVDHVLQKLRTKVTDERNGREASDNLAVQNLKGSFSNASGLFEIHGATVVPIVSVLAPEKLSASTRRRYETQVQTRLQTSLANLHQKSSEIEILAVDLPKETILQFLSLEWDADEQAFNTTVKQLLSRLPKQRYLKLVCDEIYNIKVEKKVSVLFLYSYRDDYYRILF
CDK7, sequence (P50613 whole entry): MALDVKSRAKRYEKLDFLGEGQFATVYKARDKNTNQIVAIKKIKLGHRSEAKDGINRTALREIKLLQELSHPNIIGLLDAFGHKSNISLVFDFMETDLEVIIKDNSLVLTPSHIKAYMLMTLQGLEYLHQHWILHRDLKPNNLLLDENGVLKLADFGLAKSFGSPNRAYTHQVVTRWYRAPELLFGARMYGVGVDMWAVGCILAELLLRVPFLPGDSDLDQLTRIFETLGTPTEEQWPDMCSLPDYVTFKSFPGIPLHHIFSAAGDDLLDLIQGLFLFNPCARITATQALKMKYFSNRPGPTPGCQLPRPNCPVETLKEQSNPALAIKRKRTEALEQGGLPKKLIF
ARAF, sequence (P10398 whole entry): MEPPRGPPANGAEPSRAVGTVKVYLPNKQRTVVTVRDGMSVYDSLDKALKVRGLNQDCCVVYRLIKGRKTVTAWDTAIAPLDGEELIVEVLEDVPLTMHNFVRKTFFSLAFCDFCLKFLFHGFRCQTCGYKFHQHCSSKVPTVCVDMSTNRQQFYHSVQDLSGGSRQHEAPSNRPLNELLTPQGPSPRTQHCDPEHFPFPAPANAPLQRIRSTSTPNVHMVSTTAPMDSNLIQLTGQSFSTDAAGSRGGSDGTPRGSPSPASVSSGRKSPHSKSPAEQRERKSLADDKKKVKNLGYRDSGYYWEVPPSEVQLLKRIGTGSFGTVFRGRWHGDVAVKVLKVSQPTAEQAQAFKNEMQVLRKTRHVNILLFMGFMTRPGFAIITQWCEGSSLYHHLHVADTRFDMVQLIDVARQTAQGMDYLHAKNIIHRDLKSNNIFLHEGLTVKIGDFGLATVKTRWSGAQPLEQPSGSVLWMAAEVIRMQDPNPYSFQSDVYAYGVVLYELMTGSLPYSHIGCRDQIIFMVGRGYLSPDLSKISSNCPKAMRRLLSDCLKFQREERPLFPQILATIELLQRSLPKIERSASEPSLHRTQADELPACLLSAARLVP
ULK1, sequence (O75385 whole entry): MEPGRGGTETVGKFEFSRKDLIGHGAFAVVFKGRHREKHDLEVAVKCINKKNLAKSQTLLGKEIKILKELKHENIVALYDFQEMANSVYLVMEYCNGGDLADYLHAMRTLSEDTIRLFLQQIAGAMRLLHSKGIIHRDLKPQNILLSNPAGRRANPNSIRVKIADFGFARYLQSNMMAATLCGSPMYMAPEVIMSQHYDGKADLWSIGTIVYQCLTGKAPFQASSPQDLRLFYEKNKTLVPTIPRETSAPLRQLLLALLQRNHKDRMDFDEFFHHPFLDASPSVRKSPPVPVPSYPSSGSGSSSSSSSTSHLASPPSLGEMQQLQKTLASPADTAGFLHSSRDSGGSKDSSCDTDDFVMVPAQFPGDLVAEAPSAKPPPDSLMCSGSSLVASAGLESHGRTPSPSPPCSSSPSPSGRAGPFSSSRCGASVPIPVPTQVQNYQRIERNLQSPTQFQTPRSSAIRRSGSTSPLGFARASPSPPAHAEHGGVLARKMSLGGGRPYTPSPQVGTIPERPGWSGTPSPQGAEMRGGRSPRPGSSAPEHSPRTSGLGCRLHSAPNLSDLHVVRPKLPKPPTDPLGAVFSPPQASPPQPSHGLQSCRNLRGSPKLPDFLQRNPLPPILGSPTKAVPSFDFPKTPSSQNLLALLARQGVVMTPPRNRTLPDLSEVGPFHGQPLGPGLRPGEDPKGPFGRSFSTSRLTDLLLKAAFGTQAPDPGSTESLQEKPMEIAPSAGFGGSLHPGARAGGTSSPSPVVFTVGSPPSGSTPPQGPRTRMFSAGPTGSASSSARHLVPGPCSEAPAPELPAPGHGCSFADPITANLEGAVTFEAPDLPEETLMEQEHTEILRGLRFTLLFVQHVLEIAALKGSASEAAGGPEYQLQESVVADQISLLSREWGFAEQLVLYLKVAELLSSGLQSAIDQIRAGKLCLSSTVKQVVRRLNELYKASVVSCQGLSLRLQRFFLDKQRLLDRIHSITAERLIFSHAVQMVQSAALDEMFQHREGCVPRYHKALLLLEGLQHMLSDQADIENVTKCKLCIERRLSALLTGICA
PIP4K2A, sequence (P48426 whole entry): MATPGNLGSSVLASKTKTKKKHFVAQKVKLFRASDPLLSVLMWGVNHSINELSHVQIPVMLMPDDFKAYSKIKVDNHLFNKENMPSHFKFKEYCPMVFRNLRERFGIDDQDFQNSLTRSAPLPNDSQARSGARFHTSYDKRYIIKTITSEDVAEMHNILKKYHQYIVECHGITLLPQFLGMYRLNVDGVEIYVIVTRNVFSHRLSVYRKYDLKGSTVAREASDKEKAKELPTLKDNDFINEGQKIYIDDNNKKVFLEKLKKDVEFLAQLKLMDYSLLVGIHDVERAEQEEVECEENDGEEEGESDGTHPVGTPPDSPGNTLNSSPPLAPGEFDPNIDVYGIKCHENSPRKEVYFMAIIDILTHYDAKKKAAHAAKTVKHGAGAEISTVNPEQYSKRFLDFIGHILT
PDXK, sequence (O00764 whole entry): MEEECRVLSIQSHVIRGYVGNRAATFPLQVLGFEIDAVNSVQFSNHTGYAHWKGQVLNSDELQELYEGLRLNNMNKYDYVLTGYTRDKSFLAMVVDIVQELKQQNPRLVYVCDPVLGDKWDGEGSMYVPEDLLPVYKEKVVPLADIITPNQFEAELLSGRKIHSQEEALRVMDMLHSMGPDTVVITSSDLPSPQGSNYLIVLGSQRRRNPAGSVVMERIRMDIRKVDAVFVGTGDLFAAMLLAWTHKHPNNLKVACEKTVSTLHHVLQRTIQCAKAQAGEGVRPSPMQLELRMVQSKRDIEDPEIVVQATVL
FGR, sequence (P09769 whole entry): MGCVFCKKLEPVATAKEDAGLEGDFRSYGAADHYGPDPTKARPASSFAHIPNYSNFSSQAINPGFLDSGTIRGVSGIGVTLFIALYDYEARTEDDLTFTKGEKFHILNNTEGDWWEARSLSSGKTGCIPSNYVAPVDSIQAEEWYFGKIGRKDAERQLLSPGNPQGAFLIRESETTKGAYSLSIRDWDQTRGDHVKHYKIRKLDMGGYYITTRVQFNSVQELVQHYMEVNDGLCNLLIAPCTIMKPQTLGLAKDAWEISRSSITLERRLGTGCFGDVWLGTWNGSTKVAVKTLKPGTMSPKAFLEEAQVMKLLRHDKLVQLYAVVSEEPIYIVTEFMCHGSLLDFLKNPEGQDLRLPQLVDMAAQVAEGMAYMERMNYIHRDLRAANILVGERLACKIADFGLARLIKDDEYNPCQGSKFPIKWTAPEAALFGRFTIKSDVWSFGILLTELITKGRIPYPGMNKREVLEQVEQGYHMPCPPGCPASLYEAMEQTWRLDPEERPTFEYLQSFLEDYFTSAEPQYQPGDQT

Broadly, the IC50 is the concentration at which inhibition is half-maximal. With `COc1nc(N[C@H]2CC[C@H](NS(=O)(=O)CC(C)C)CC2)nc2[nH]nc(N3CCOC[C@H]3C)c12` [compound 39, N-(trans-4-((4-Methoxy-3-((R)-3-methylmorpholino)-1H-pyrazolo[3,4-d]pyrimidin-6-yl)amino)cyclohexyl)-2-methylpropane-1-sulfonamide], the half-inhibitory concentration (IC50) in assay [1] is at least 20 µM; in [2], at least 20 µM; in assay [3] it was at least 20 µM; in assay [4], 2.5 µM; in assay [5], at least 20 µM; in assay [6] it was at least 20 µM. The IC50 in assay [7], in assay [8], in [9], in assay [10], in assay [11] and in assay [12] was at least 20 µM throughout. For the same molecule, the half-inhibitory concentration (IC50) in [13], in assay [14], in assay [15], in [16], in assay [17] and in [18] was at least 20 µM throughout. Further, the IC50 in assay [19], in assay [20] and in [21] was at least 20 µM throughout.
